Experimental data published in ChEMBL document CHEMBL3872220, “Amphiphilic xanthones as a potent chemical entity of anti-mycobacterial agents with membrane-targeting properties” (Eur J Med Chem, 2016).
In brackets after ≈: the same amount, converted by molar mass.

Legend:
[1] = tested on: Mycolicibacterium smegmatis; experiment: Antimycobacterial activity against Mycobacterium smegmatis MC2 155 assessed as ATP leakage by measuring extracellular ATP at 2 times MIC measured immediatey after addition of compounds by luciferase reporter gene assay; assay type: functional, str. MC2 155
[2] = tested on: Mycolicibacterium smegmatis; experiment: Antimycobacterial activity against Mycobacterium smegmatis MC2 155 assessed as ATP leakage by measuring extracellular ATP at 4 times MIC measured at 3 hrs post dose by luciferase reporter gene assay; assay type: functional, str. MC2 155
[3] = tested on: Mycolicibacterium smegmatis; experiment: Antimycobacterial activity against Mycobacterium smegmatis MC2 155 assessed as ATP leakage by measuring extracellular ATP at 4 times MIC measured at 9 hrs post dose by luciferase reporter gene assay; assay type: functional, str. MC2 155
[4] = tested on: Mycolicibacterium smegmatis; experiment: Antimycobacterial activity against Mycobacterium smegmatis MC2 155 assessed as ATP leakage by measuring extracellular ATP at MIC measured at 9 hrs post dose by luciferase reporter gene assay; assay type: functional, str. MC2 155
[5] = tested on: Mycolicibacterium smegmatis; experiment: Antimycobacterial activity against Mycobacterium smegmatis MC2 155 assessed as ATP leakage by measuring intracellular ATP at 0.5 times MIC measured at 9 hrs post dose by luciferase reporter gene assay; assay type: functional, str. MC2 155
[6] = tested on: Mycolicibacterium smegmatis; experiment: Antimycobacterial activity against Mycobacterium smegmatis MC2 155 assessed as ATP leakage by measuring extracellular ATP at 4 times MIC measured at 24 hrs post dose by luciferase reporter gene assay; assay type: functional, str. MC2 155
[7] = tested on: Mycolicibacterium smegmatis; experiment: Antimycobacterial activity against Mycobacterium smegmatis MC2 155 assessed as ATP leakage by measuring extracellular ATP at 2 times MIC measured at 6 hrs post dose by luciferase reporter gene assay; assay type: functional, str. MC2 155
[8] = tested on: Mycolicibacterium smegmatis; experiment: Antimycobacterial activity against Mycobacterium smegmatis MC2 155 assessed as ATP leakage by measuring extracellular ATP at 2 times MIC measured at 3 hrs post dose by luciferase reporter gene assay; assay type: functional, str. MC2 155
[9] = Half life in rat liver microsomes at 1 uM preincubated for 5 mins followed by NADPH addition measured by LC-MS/MS method; assay type: ADME
[10] = tested on: Mycolicibacterium smegmatis; experiment: Antimycobacterial activity against Mycobacterium smegmatis MC2 155 assessed as inhibition of respiratory ATP synthesis by measuring ATP level at 2 times MIC measured after 6 hrs by luciferase reporter gene assay (reference value: 212.7%); assay type: functional, str. MC2 155; design: scale not given: the % may be the effect or the level left
[11] = tested on: Mycolicibacterium smegmatis; experiment: Antimycobacterial activity against Mycobacterium smegmatis MC2 155 assessed as ATP leakage by measuring intracellular ATP at MIC measured at 6 hrs post dose by luciferase reporter gene assay; assay type: functional, str. MC2 155
[12] = tested on: Mycolicibacterium smegmatis; experiment: Antimycobacterial activity against Mycobacterium smegmatis MC2 155 assessed as ATP leakage by measuring extracellular ATP at 4 times MIC measured immediatey after addition of compounds by luciferase reporter gene assay; assay type: functional, str. MC2 155
[13] = tested on: Mycolicibacterium smegmatis; experiment: Antimycobacterial activity against Mycobacterium smegmatis MC2 155 assessed as ATP leakage by measuring extracellular ATP at MIC measured at 1 hr of post dose by luciferase reporter gene assay; assay type: functional, str. MC2 155
[14] = tested on: Mycolicibacterium smegmatis; experiment: Antimycobacterial activity against Mycobacterium smegmatis MC2 155 assessed as ATP leakage by measuring extracellular ATP at MIC measured immediatey after addition of compounds by luciferase reporter gene assay; assay type: functional, str. MC2 155
[15] = tested on: Mycolicibacterium smegmatis; experiment: Antimycobacterial activity against Mycobacterium smegmatis MC2 155 assessed as ATP leakage by measuring extracellular ATP at 0.5 times MIC measured at 9 hrs post dose by luciferase reporter gene assay; assay type: functional, str. MC2 155
[16] = tested on: Mycolicibacterium smegmatis; experiment: Antimycobacterial activity against Mycobacterium smegmatis MC2 155 assessed as ATP leakage by measuring extracellular ATP at 4 times MIC measured at 6 hrs post dose by luciferase reporter gene assay; assay type: functional, str. MC2 155
[17] = tested on: Mycolicibacterium smegmatis; experiment: Antimycobacterial activity against Mycobacterium smegmatis MC2 155 after 24 hrs by broth dilution assay; assay type: functional; conditions: str. MC2 155, 24 h
[18] = tested on: Mycolicibacterium smegmatis; experiment: Antimycobacterial activity against Mycobacterium smegmatis MC2 155 assessed as ATP leakage by measuring extracellular ATP at MIC measured at 6 hrs post dose by luciferase reporter gene assay; assay type: functional, str. MC2 155
[19] = Drug metabolism in rat liver microsomes at 1 uM preincubated for 5 mins followed by NADPH addition measured up to 30 mins by LC-MS/MS method; assay type: ADME; conditions: read-out: Drug metabolism
[20] = tested on: Mycolicibacterium smegmatis; experiment: Antimycobacterial activity against Mycobacterium smegmatis MC2 155 assessed as ATP leakage by measuring intracellular ATP at 2 times MIC measured at 9 hrs post dose by luciferase reporter gene assay; assay type: functional, str. MC2 155
[21] = tested on: Mycolicibacterium smegmatis; experiment: Antimycobacterial activity against Mycobacterium smegmatis MC2 155 assessed as ATP leakage by measuring intracellular ATP at MIC measured immediatey after addition of compounds by luciferase reporter gene assay; assay type: functional, str. MC2 155
[22] = tested on: Mycolicibacterium smegmatis; experiment: Antimycobacterial activity against Mycobacterium smegmatis MC2 155 assessed as ATP leakage by measuring intracellular ATP at 4 times MIC measured at 6 hrs post dose by luciferase reporter gene assay; assay type: functional, str. MC2 155
[23] = tested on: Mycolicibacterium smegmatis; experiment: Antimycobacterial activity against Mycobacterium smegmatis MC2 155 assessed as ATP leakage by measuring intracellular ATP at 2 times MIC measured at 1 hr of post dose by luciferase reporter gene assay; assay type: functional, str. MC2 155
[24] = tested on: Mycolicibacterium smegmatis; experiment: Antimycobacterial activity against Mycobacterium smegmatis MC2 155 assessed as ATP leakage by measuring intracellular ATP at MIC measured at 3 hrs post dose by luciferase reporter gene assay; assay type: functional, str. MC2 155
[25] = tested on: Mycolicibacterium smegmatis; experiment: Antimycobacterial activity against Mycobacterium smegmatis MC2 155 assessed as ATP leakage by measuring intracellular ATP at MIC measured at 24 hrs post dose by luciferase reporter gene assay; assay type: functional, str. MC2 155
[26] = tested on: Mycolicibacterium smegmatis; experiment: Antimycobacterial activity against Mycobacterium smegmatis MC2 155 assessed as ATP leakage by measuring intracellular ATP at 4 times MIC measured immediatey after addition of compounds by luciferase reporter gene assay; assay type: functional, str. MC2 155
[27] = tested on: Mycolicibacterium smegmatis; experiment: Antimycobacterial activity against Mycobacterium smegmatis MC2 155 assessed as ATP leakage by measuring intracellular ATP at MIC measured at 9 hrs post dose by luciferase reporter gene assay; assay type: functional, str. MC2 155
[28] = tested on: Mycolicibacterium smegmatis; experiment: Antimycobacterial activity against Mycobacterium smegmatis MC2 155 assessed as ATP leakage by measuring intracellular ATP at 4 times MIC measured at 3 hrs post dose by luciferase reporter gene assay; assay type: functional, str. MC2 155
[29] = tested on: Mycolicibacterium smegmatis; experiment: Antimycobacterial activity against Mycobacterium smegmatis MC2 155 assessed as ATP leakage by measuring extracellular ATP at 2 times MIC measured at 24 hrs post dose by luciferase reporter gene assay; assay type: functional, str. MC2 155
[30] = tested on: Mycolicibacterium smegmatis; experiment: Antimycobacterial activity against Mycobacterium smegmatis MC2 155 assessed as ATP leakage by measuring intracellular ATP at MIC measured at 1 hr of post dose by luciferase reporter gene assay; assay type: functional, str. MC2 155
[31] = tested on: Mycolicibacterium smegmatis; experiment: Antimycobacterial activity against Mycobacterium smegmatis MC2 155 assessed as ATP leakage by measuring extracellular ATP at 0.5 times MIC measured immediatey after addition of compounds by luciferase reporter gene assay by luciferase reporter gene assay by luciferase reporter gene assay; assay type: functional, str. MC2 155
[32] = tested on: Mycolicibacterium smegmatis; experiment: Antimycobacterial activity against Mycobacterium smegmatis MC2 155 assessed as ATP leakage by measuring extracellular ATP at 4 times MIC measured at 1 hr of post dose by luciferase reporter gene assay; assay type: functional, str. MC2 155
[33] = tested on: Mycolicibacterium smegmatis; experiment: Antimycobacterial activity against Mycobacterium smegmatis MC2 155 assessed as ATP leakage by measuring intracellular ATP at 2 times MIC measured at 24 hrs post dose by luciferase reporter gene assay; assay type: functional, str. MC2 155
[34] = tested on: Mycolicibacterium smegmatis; experiment: Antimycobacterial activity against Mycobacterium smegmatis MC2 155 assessed as ATP leakage by measuring extracellular ATP at 0.5 times MIC measured at 3 hrs post dose by luciferase reporter gene assay; assay type: functional, str. MC2 155

Compound | Activity [1] [%] | Activity [2] [%] | Activity [3] [%] | Activity [4] [%] | Activity [5] [%] | Activity [6] [%] | Activity [7] [%] | Activity [8] [%] | half-life at 1 µM [9] [min] | Activity [10] [%] | Activity [11] [%] | Activity [12] [%] | Activity [13] [%] | Activity [14] [%] | Activity [15] [%] | Activity [16] [%] | MIC90 [17] [µM] | Activity [18] [%] | metabolised at 0.5 h, 1 µM [19] [%] | Activity [20] [%] | other results
CCCN(CCC)CCCCOc1cc2oc3cc(OCCCCN(CCC)CCC)c(OC)c(CC=C(C)C)c3c(=O)c2c(O)c1CC=C(C)C | 4 | 91.1 | 84.3 | 89.4 | 66.5 | 88 | 96.1 | 97.4 | > 30 | 3.9 | 12 | 4.3 | 88.5 | 2.3 | 33.5 | 83.5 | 3.2 (≈ 2.31 µg/mL) | 88 | 10 | 3.9 | Activity [21]: 97.7%; Activity [22]: 16.5%; Activity [23]: 2.8%; Activity [24]: 8.2%; Activity [25]: 11.9%; Activity [26]: 95.7%; Activity [27]: 10.6%; Activity [28]: 8.9%; Activity [29]: 95.3%; Activity [30]: 11.5%; Activity [31]: 0%; Activity [32]: 94.3%; Activity [33]: 4.7%; Activity [34]: 39%
COc1c(OCCCCN2CCOCC2)cc2oc3cc(OCCCCN4CCOCC4)c(CC=C(C)C)c(O)c3c(=O)c2c1CC=C(C)C | 3 | 55.3 | 92.1 | 58.6 | 73.5 | 95.5 | 76.7 | 63.4 | > 30 | 11 | 63.7 | 3.8 | 6.5 | 2.3 | 26.5 | 91.3 | 35 (≈ 24.3 µg/mL) | 36.3 | 0 | 15.6 | Activity [21]: 97.7%; Activity [22]: 6.7%; Activity [23]: 69.6%; Activity [24]: 55.3%; Activity [25]: 11.3%; Activity [26]: 96.2%; Activity [27]: 41.4%; Activity [28]: 44.7%; Activity [29]: 94.7%; Activity [30]: 93.5%; Activity [31]: 0%; Activity [32]: 42.7%; Activity [33]: 5.3%; Activity [34]: 5.9%
CCN(CC)CCCCOc1cc2oc3cc(OCCCCN(CC)CC)c(OC)c(CC=C(C)C)c3c(=O)c2c(O)c1CC=C(C)C | 1.3 | 97.5 | 97.3 | 82.4 | 76.8 | 97.3 | 96.8 | 97.3 | > 30 | 2.3 | 20.1 | 1.3 | 42.1 | 0.8 | 23.2 | 96.7 | 3.2 (≈ 2.13 µg/mL) | 79.9 | 12.1 | 3.4 | Activity [21]: 99.2%; Activity [22]: 3.3%; Activity [23]: 4.4%; Activity [24]: 12%; Activity [25]: 55.6%; Activity [26]: 98.7%; Activity [27]: 17.6%; Activity [28]: 2.5%; Activity [29]: 86.7%; Activity [30]: 57.9%; Activity [31]: 0%; Activity [32]: 97.4%; Activity [33]: 13.3%; Activity [34]: 16.4%
